This note sets out measurements from patent US20260159512A1, “BCAT2 INHIBITORS” (AGIOS PHARMACEUTICALS, INC., priority 2021, published 2026).

pIC50: −log10 of the molar value.

Details in all cases: average where tested multiple times
In assay [1] the target is T1, BCAT2 (Homo sapiens, UniProt O15382).
T1 sequence (O15382 28-392): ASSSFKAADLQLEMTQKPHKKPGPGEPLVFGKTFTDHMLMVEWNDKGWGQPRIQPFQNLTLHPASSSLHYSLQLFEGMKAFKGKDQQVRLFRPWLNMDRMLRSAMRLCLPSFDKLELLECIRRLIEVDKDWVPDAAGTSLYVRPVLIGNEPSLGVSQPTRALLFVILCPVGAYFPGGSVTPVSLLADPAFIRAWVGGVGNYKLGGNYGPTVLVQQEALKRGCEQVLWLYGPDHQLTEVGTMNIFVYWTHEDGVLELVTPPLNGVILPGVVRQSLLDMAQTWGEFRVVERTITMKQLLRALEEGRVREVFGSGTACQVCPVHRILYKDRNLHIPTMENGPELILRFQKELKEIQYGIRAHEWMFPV
The assay is described as follows: BCAT2 in vitro cell inhibition using engineered A549 cells (KMV cell assay, 13C6-KMV by LC-MS/MS). It counts as cell-based. On the set-up: The result was an engineered A549 cell line that expressed endogenous BCAT2; endogenous in cells; host or cells: A549 cells with MUT and BCAT1 knocked out by CRISPR/CAS9; key to BCAT2 Cell Inhibition: A: less than or equal to 0.100 μM; B: greater than 0.100 and less than or equal to 0.500 μM; C: greater than 0.500 and less than or equal to 1.000 μM; d: greater than 1.000 μM; E: no fit.

The target in assay [2] is T2, hBCAT1 (Homo sapiens, UniProt P54687).
T2 sequence (P54687 1-386): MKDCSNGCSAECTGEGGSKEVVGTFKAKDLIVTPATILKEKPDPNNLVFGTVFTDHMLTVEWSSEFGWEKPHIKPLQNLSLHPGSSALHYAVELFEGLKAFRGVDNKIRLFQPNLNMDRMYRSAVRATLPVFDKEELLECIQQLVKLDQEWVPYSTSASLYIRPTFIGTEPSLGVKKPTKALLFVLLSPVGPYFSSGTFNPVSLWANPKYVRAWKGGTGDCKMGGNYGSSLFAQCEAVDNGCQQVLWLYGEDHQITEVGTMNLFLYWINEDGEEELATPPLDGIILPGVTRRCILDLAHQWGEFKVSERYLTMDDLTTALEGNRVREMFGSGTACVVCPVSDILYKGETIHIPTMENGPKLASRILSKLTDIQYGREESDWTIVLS
The assay can be described thus: BCAT1 in vitro enzyme inhibition assay (resazurin/diaphorase-coupled fluorescence). It counts as biochemical. The gist of the method: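 Ten-point, 3-fold compound series (top final 100 μM, delivered 1:50 from 50× DMSO stocks) tested against hBCAT1. Inhibition detected via diaphorase-coupled resazurin fluorescence, duplicate wells, with values from repeated runs averaged.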
(The colour change of resazurin is a common sign of viable cells or microbes.)

Assay [3] has as its target T1, BCAT2. The assay can be described thus: BCAT2 in vitro enzyme inhibition assay (resazurin/diaphorase-coupled fluorescence). It counts as biochemical. The gist of the method: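 Coupled fluorescence readout: glutamate formed from L-leucine/α-ketoglutarate transamination drives GDH/NAD/diaphorase reduction of resazurin (Ex 540/Em 590). Human BCAT2 was first exposed 1 h at room temperature to compound, top final 100 μM in 3-fold, 10-point series; substrate reaction ran 1 h before SDS quench, in technical duplicate with DMSO max and enzyme-free min controls.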

For `O=C(NC1CCCC(n2c(-c3ncccc3F)nc3cnc(-c4nnco4)cc32)C1)c1ccc(Br)s1` (stereo not drawn) [Example 2, 5-bromo-N-(3-(2-(3-fluoropyridin-2-yl)-6-(1,3,4-oxadiazol-2-yl)-1H-imidazo[4,5-c]pyridin-1-yl)cyclohexyl)thiophene-2-carboxamide], the pIC50 (as a rule, the IC50 on a negative log10 scale, so that one unit is a factor of ten) is 6.30 to 7.00 in assay [1], 6.00 to 6.30 in assay [2] and at least 7.00 in assay [3].
For the compound `O=C(NC1COCC(n2c(-c3ncccc3F)nc3cnc(-n4nccn4)cc32)C1)c1ncc(C(F)F)s1` (single isomer, unassigned) [Example 139, 5-(difluoromethyl)-N-(5-(2-(3-fluoropyridin-2-yl)-6-(2H-1,2,3-triazol-2-yl)-1H-imidazo[4,5-c]pyridin-1-yl)tetrahydro-2H-pyran-3-yl)thiazole-2-carboxamide], the “BCAT2 Cell Inhibition” value in assay [1] is “E”. Moreover, the pIC50 was below 5.30 in assay [2] and below 6.00 in assay [3].
Regarding `Cc1cccnc1-c1cc2c(cn1)nc(-c1ccccc1F)n2[C@@H]1CCC[C@H](NC(=O)c2ncc(Cl)s2)C1` [Example 161, 5-chloro-N-((1S,3R)-3-(2-(2-fluorophenyl)-6-(3-methylpyridin-2-yl)-1H-imidazo[4,5-c]pyridin-1-yl)cyclohexyl)thiazole-2-carboxamide], the negative-log IC50 (pIC50) in assay [1] was 6.30 to 7.00; in assay [2], 5.30 to 6.00; in assay [3], at least 7.00.
As for `O=C(N[C@@H]1C[C@@H](O)C[C@H](n2c(-c3ccccc3F)nc3cnc(-n4nccn4)cc32)C1)c1ncc(Cl)s1` (single isomer, unassigned) [Example 111], the pIC50 is 6.30 to 7.00 in assay [1], above 6.30 in assay [2] and 6.30 to 7.00 in assay [3].
As for `O=C(N[C@H]1CCC[C@@H](n2c(-c3ccccc3F)nc3cnc(-c4cccnn4)cc32)C1)c1ncc(Cl)s1` [Example 188, 5-chloro-N-((1S,3R)-3-(2-(2-fluorophenyl)-6-(pyridazin-3-yl)-1H-imidazo[4,5-c]pyridin-1-yl)cyclohexyl)thiazole-2-carboxamide], the pIC50 in assay [1] was 6.30 to 7.00; in assay [2], 5.30 to 6.00; in assay [3] it was at least 7.00.
With `CNC(=O)c1ccc2c(c1)nc(-c1ccccn1)n2C1CC(NC(=O)c2ccc(Br)s2)CN(C(C)=O)C1` (stereo not drawn) [Example 287, 1-(1-acetyl-5-(5-bromothiophene-2-carboxamido)piperidin-3-yl)-N-methyl-2-(pyridin-2-yl)-1H-benzo[d]imidazole-5-carboxamide], in assay [1], the “BCAT2 Cell Inhibition” value was “E”. Also, the pIC50 is below 5.30 in assay [2] and 6.30 to 7.00 in assay [3].
Turning to `O=C(NC1CNCC(n2c(-c3ncccc3F)nc3cnc(-n4nccn4)cc32)C1)c1ncc(C(F)F)s1` (stereo not drawn) [Example 125, 5-(difluoromethyl)-N-(5-(2-(3-fluoropyridin-2-yl)-6-(2H-1,2,3-triazol-2-yl)-1H-imidazo[4,5-c]pyridin-1-yl)piperidin-3-yl)thiazole-2-carboxamide], the figures for the pIC50 in assay [1], in assay [2] and in assay [3] were 6.30 to 7.00, 5.30 to 6.00 and at least 7.00, respectively.
For `O=C(NC1CCCCC(n2c(-c3c(O)cccc3F)nc3cnc(-c4nc[nH]n4)cc32)C1O)c1ccc(Cl)s1` (stereo not drawn) [Example 403, 5-chloro-N-(3-(2-(2-fluoro-6-hydroxyphenyl)-6-(1H-1,2,4-triazol-3-yl)-1H-imidazo[4,5-c]pyridin-1-yl)-2-hydroxycycloheptyl)thiophene-2-carboxamide], in that order: 6.30 to 7.00, above 6.30 and at least 7.00.
Taken in the same sequence, the figures for `O=C(N[C@H]1CCC[C@@H](n2c(-c3ccccc3F)nc3cnc(-c4nc[nH]n4)cc32)C1)c1ncc(C(F)(F)F)s1` [Example 85, N-((1S,3R)-3-(2-(2-fluorophenyl)-6-(1H-1,2,4-triazol-3-yl)-1H-imidazo[4,5-c]pyridin-1-yl)cyclohexyl)-5-(trifluoromethyl)thiazole-2-carboxamide] were at least 7.00, above 6.30 and at least 7.00.
For `CC(C)Cc1nc2cnc(-c3nc[nH]n3)cc2n1[C@H]1C[C@@H](NC(=O)c2ncc(Cl)s2)CN(C)C1` (single isomer, unassigned) [Example 136], the values for the pIC50 in assay [1], in assay [2] and in assay [3] were at least 7.00, above 6.30 and at least 7.00, respectively.
For the compound `Cn1nccc1-c1nc2cnc(-n3ccnn3)cc2n1[C@@H]1CCC[C@H](NC(=O)c2ncc(C(F)F)s2)C1` [Example 44, 5-(difluoromethyl)-N-((1S,3R)-3-(2-(1-methyl-1H-pyrazol-5-yl)-6-(1H-1,2,3-triazol-1-yl)-1H-imidazo[4,5-c]pyridin-1-yl)cyclohexyl)thiazole-2-carboxamide], the “BCAT2 Cell Inhibition” value in assay [1] was “E”. The negative-log IC50 (pIC50) in assay [2] was below 5.30; in assay [3] it was below 6.00.
Regarding `CC(C)Cc1nc2cnc(-c3ncccn3)cc2n1[C@@H]1CCC[C@H](NC(=O)c2ncc(Cl)s2)C1` [Example 331, 5-chloro-N-((1S,3R)-3-(2-isobutyl-6-(pyrimidin-2-yl)-1H-imidazo[4,5-c]pyridin-1-yl)cyclohexyl)thiazole-2-carboxamide], the figures for the pIC50 in assay [1], in assay [2] and in assay [3] were at least 7.00, above 6.30 and at least 7.00, respectively.
`O=C(N[C@H]1CCC[C@@H](n2c(-c3ccccc3F)nc3cc(-n4ccnn4)ncc32)C1)c1ncc(C(F)F)s1` [Example 149, 5-(difluoromethyl)-N-((1S,3R)-3-(2-(2-fluorophenyl)-6-(1H-1,2,3-triazol-1-yl)-3H-imidazo[4,5-c]pyridin-3-yl)cyclohexyl)thiazole-2-carboxamide]: the negative-log IC50 (pIC50) in assay [1] was 6.30 to 7.00; in assay [2], 5.30 to 6.00; in assay [3], at least 7.00.
As for `C=Cc1csc(C(=O)N[C@H]2CCC[C@@H](n3c(-c4ccccc4F)nc4cnc(-c5nc[nH]n5)cc43)C2)n1` [Example 173, N-((1S,3R)-3-(2-(2-fluorophenyl)-6-(1H-1,2,4-triazol-3-yl)-1H-imidazo[4,5-c]pyridin-1-yl)cyclohexyl)-4-vinylthiazole-2-carboxamide], the results for the pIC50 in assay [1], in assay [2] and in assay [3] were 6.00 to 6.30, 5.30 to 6.00 and at least 7.00, respectively.
Regarding `CC(C)Cc1nc2cnc(-c3nc[nH]n3)cc2n1[C@@H]1CCCC[C@H](NC(=O)c2ncc(Cl)s2)C1` [Example 374, 5-chloro-N-((1S,3R)-3-(2-isobutyl-6-(1H-1,2,4-triazol-3-yl)-1H-imidazo[4,5-c]pyridin-1-yl)cycloheptyl)thiazole-2-carboxamide], the pIC50 in assay [1] was at least 7.00; in assay [2], above 6.30; in assay [3], at least 7.00.
With `CC(=O)N1CC(NC(=O)c2ncc(C(F)F)s2)CC(n2c(-c3ncccc3F)nc3cnc(-n4nccn4)cc32)C1` (stereo not drawn) [Example 119, N-(1-acetyl-5-(2-(3-fluoropyridin-2-yl)-6-(2H-1,2,3-triazol-2-yl)-1H-imidazo[4,5-c]pyridin-1-yl)piperidin-3-yl)-5-(difluoromethyl)thiazole-2-carboxamide], the pIC50 in assay [1] was 6.30 to 7.00; in assay [2], above 6.30; in assay [3], at least 7.00.
As for `O=C(N[C@H]1C[C@H](O)C[C@@H](n2c(-c3ccccc3F)nc3cnccc32)C1)c1ncc(Cl)s1` [Example 272, 5-chloro-N-((1R,3S,5S)-3-(2-(2-fluorophenyl)-1H-imidazo[4,5-c]pyridin-1-yl)-5-hydroxycyclohexyl)thiazole-2-carboxamide], the pIC50 in assay [1] is 6.00 to 6.30; in assay [2], 6.00 to 6.30; in assay [3], at least 7.00.
In the case of `O=C(N[C@H]1CCC[C@@H](n2c(-c3ccccc3C(=O)O)nc3cnc(-n4nccn4)cc32)C1)c1ncc(C(F)F)s1` [Example 99, 2-(1-((1R,3S)-3-(5-(difluoromethyl)thiazole-2-carboxamido)cyclohexyl)-6-(2H-1,2,3-triazol-2-yl)-1H-imidazo[4,5-c]pyridin-2-yl)benzoic acid], the “BCAT2 Cell Inhibition” value in assay [1] is given as “E”. Besides, the pIC50 was 5.30 to 6.00 in assay [2] and at least 7.00 in assay [3].
